# Experimental data from patent publication US6399773B1, “Compounds derived from an amine nucleus that are inhibitors of IMPDH enzyme” (Bristol-Myers Squibb Co., priority 1998, dated 2002).
row,Compound,melting point [°C]
1,"COc1cc(Nc2cccc(-c3ccccc3)c2)ccc1-c1cnco1 [Example 29, N-[3-Methoxy-4-(5-oxazolyl)phenyl][1,1′-biphenyl]-3-amine]",171 to 173
2,"COc1cc(Nc2nsc(-c3ccccc3)n2)ccc1-c1cnco1 [Example 30, N-[3-Methoxy-4-(5-oxazolyl)phenyl]-5-phenyl-1,2,4-thiadiazol-3-amine]",260 to 261
3,"COc1cc(Nc2cc(-c3ccccc3)on2)ccc1-c1cnco1 [Example 31, N-[3-Methoxy-4-(5-oxazolyl)phenyl]-5-phenyl-3-isoxazolamine]",173 to 175
4,"COc1cc(Nc2ncc(-c3ccccc3)o2)ccc1-c1cnco1 [Example 34, N-[3-Methoxy-4-(5-oxazolyl)phenyl]-5-phenyl-2-oxazolamine]",212 to 215
5,"COc1cc(Nc2ncc(-c3ccccc3N(C)C(=O)CN3CCOCC3)o2)ccc1-c1cnco1 [Example 79, N-[2-[2-[[3-Methoxy-4-(5-oxazolyl)phenyl]amino]-5-oxazolyl]phenyl]-N-methyl-4-morpholineacetamide]",179 to 181
6,"COc1cc(Nc2ncc(-c3ccccc3C(=O)O)o2)ccc1-c1cnco1 [Example 80, 2-[2-[[3-Methoxy-4-(5-oxazolyl)phenyl]amino]-5-oxazolyl]benzoic acid]",271 to 274
